Tested on: idiopathic pulmonary fibrosis model rats
Assay: Bleomycin-induced idiopathic pulmonary fibrosis model
Format: in vivo, male SD rats
Conditions: IPF rats; for degree of pulmonary fibrosis in the left lung (Ashcroft score): oral once a day 14 days
Description: 48 male SD rats were randomly divided into 6 groups according to their body weights, with 8 rats in each group: a sham operation group (Sham), a model group, a nintedanib-50 mg/kg group (BIBF-50 mg/kg), a tadalafil-5 mg/kg group, a tadalafil-20 mg/kg group, and a sildenafil-20 mg/kg group. All the operations involved in this experiment were implemented under the guiding principle of KCI animal experiment operation SOP. After the animals were purchased, they were fed adaptively for 3-7 days before modeling. After weighing, the animals were anesthetized with isoflurane inhalation. After it was confirmed that the animals were anesthetized, the neck was sterilized, the skin of the neck was cut open, a main trachea was exposed by blunt dissection of muscle, a small incision was made between tracheal rings, a PE-20 tube was inserted into a left main bronchus, bleomycin (dosage: 3 mg/kg, volume: 1.0 ml/kg) was directly injected, and the trachea and skin were sutured. After the operation was completed, the animals were put in an electric blanket at 37° C. to keep them warm until they fully woke up, and the animals were returned into feeding cages for normal feeding after it was confirmed that they could eat and drink freely. • (i) sham operation group and model group: the mice were given normal saline by intragastric administration according to their body weights at a dosage of 1 ml·100 g^-1·d^-1; • (ii) nintedanib-50 mg/kg group (BIBF-50 mg/kg): BIBF was formulated into a 10 mg/ml solution with 0.5% sodium carboxymethyl cellulose, and administrated intragastrically at a dosage of 50 mg·kg^-1·d^-1; • (iii) tadalafil-5 mg/kg group: tadalafil was diluted into a 1 mg/ml solution with 0.5% sodium carboxymethylcellulose, and administrated intragastrically at a dosage of 5 mg·kg^-1·d^-1; • (iv) tadalafil-20 mg/kg group: tadalafil was diluted into a 4 mg/ml solution with 0.5% sodium carboxymethylcellulose, and administrated intragastrically at a dosage of 20 mg·kg^-1·d^-1; • (v) sildenafil-20 mg/kg group: sildenafil was diluted into a 4 mg/ml solution with 0.5% sodium carboxymethylcellulose, and administrated intragastrically at a dosage of 20 mg·kg^-1·d^-1, and • the rats in each group were administrated intragastrically once a day for 14 days in total on the day of modeling. • (1) according to an interspecific dosage conversion method currently adopted by FDA, USA, the conversion coefficient of rats and human was 0.162. Therefore, according to the dosage and time of intragastric administration of tadalafil in the mice in this example, it was inferred that the oral dosage of human was 0.81-3.24 mg·kg^-1·d^-1, and the administration time was 14 days; and according to the dosage and time of intragastric administration of sildenafil in the mice in this example, it was inferred that the oral dosage of human was 3.24 mg·kg^-1·d^-1, and the administration time was 14 days. • (2) according to dosage conversion among different routes of administration in pharmacological experimental methodology, a dosage ratio of intramuscular injection and intraperitoneal injection to oral administration was about 0.3-0.4, so it was inferred that the injection dosage of tadalafil in human was 0.243-1.296 ml·kg^-1·d^-1, and the administration time was 14 days (medicament concentration: 1 mg/ml); and the injection dosage of sildenafil in human was 0.972-1.296 ml·kg^-1·d^-1, and the administration time was 14 days (medicament concentration: 1 mg/ml). 2.4 Experimental Indexes and Determining Methods 2.4.1 Weight and Volume of Left Lung of IPF Rats After 14 days of continuous administration, all animals were euthanized by intraperitoneal injection of a pentobarbital sodium anesthetic (100 mg/kg) to the animals in each group according to a KCI standard operating procedure for animal euthanasia. All animals were perfused with low-temperature PBS systematically, and then perfused systematically with formalin for fixation. […]

[1] = 14 days intragastric, BIBF 50 mg/kg, tadalafil 5 and 20 mg/kg, sildenafil 20 mg/kg
[2] = BIBF 50 mg/kg, tadalafil 5 and 20 mg/kg, sildenafil 20 mg/kg, vs model group, p<0.05

Compound: COC(=O)c1ccc2c(c1)NC(=O)/C2=C(\Nc1ccc(N(C)C(=O)CN2CCN(C)CC2)cc1)c1ccccc1 [BIBF, nintedanib]
- alveolar tissue structure in the pulmonary fibrosis lesion of the left lung (HE staining) [1]: some alveolar structures in the fibrosis lesion were still damaged
- alveolar tissue structure in the pulmonary fibrosis lesion of the left lung (Masson Trichrom staining) [1]: some alveolar structures disappeared in the fibrosis lesion
- pulmonary fibrosis lesion and lesion range in the left lung (H&E and Masson Trichrom staining) (14 days intragastric, BIBF 50 mg/kg, tadalafil 5 and 20 mg/kg, sildenafil 20 mg/kg, vs model group): no significant difference
- scores of injury degrees of bronchioles and pulmonary arterioles in the center and margin of the pulmonary fibrosis lesion (14 days intragastric, BIBF 50 mg/kg, tadalafil 5 and 20 mg/kg, sildenafil 20 mg/kg, vs model group, p<0.05): significantly decreased
- percentage of the pulmonary fibrosis degree (Ashcroft score of 3 as a boundary) (14 days intragastric, vs model group, p<0.05): significantly decreased
- degree of pulmonary fibrosis in the left lung (Ashcroft score) [2]: significantly improved

Compound: CCCc1nn(C)c2c(=O)[nH]c(-c3cc(S(=O)(=O)N4CCN(C)CC4)ccc3OCC)nc12 [sildenafil]
- alveolar tissue structure in the pulmonary fibrosis lesion of the left lung (HE staining) [1]: the alveolar structure in the fibrosis lesion was preserved
- alveolar tissue structure in the pulmonary fibrosis lesion of the left lung (Masson Trichrom staining) [1]: most of the alveolar structures in the fibrosis lesion were preserved
- degree of pulmonary fibrosis in the left lung (Ashcroft score) [2]: significantly inhibit

From patent US12569484B2, “Use of phosphodiesterase 5 inhibitor in preparation of medicament for resisting fibrotic diseases” (SHENZHEN HANHUI PHARMACEUTICAL TECHNOLOGY CO., LTD., priority 2019, dated 2026)
